Laboratory results published in ChEMBL document CHEMBL1148100, “Structure-activity relationships of norditerpenoid alkaloids occurring in toxic larkspur (Delphinium) species” (J Nat Prod, 1995).

Assay: Toxicity in iv dosed Swiss-Webster mouse
Type: organism-based
Details: in vivo

SMILES: CCN1C[C@]2(COC(=O)c3ccccc3N3C(=O)CC(C)C3=O)CC[C@H](OC)[C@]34C1[C@](O)([C@@H](OC)[C@H]23)[C@@]1(O)C[C@H](OC)[C@H]2C[C@@H]4[C@@H]1[C@H]2O (stereo partly drawn)
- LD50: 4 mg/kg

SMILES: CO[C@H]1[C@@H]2C[C@@H]3[C@H]1[C@](O)(C[C@@H]2OC)[C@]1(O)C2NC[C@]4(COC(=O)c5ccccc5N5C(=O)CC(C)C5=O)CC[C@H](OC)[C@@]23[C@@H]4[C@@H]1OC (stereo partly drawn)
- LD50: 100 mg/kg

SMILES: CO[C@H]1[C@@H]2C[C@]3(O)[C@H]1[C@@]1(C[C@@H]2OC)OCO[C@]12C1NC[C@]4(C)CC[C@H](OC)[C@@]13[C@@H]4[C@@H]2OC(C)=O
- LD50: 210 mg/kg

SMILES: CO[C@H]1[C@@H]2C[C@@H]3[C@H]1[C@](O)(C[C@@H]2OC)[C@]1(O)C2N=C[C@]4(COC(=O)c5ccccc5N5C(=O)CC(C)C5=O)CC[C@H](OC)[C@@]23[C@@H]4[C@@H]1OC (stereo partly drawn) [ANHWEIDELPHININE]
- LD50: > 177 mg/kg

SMILES: CCN1C[C@]2(COC(=O)c3ccccc3N)CC[C@H](OC)[C@]34C1[C@](O)([C@@H](OC)[C@H]23)[C@@]1(O)C[C@H](OC)[C@H]2C[C@@H]4[C@@H]1[C@H]2OC [ANTHRANOYLLYCOCTONINE]
- LD50: 20.8 mg/kg

SMILES: CCN1C[C@]2(COC(=O)c3ccccc3N3C(=O)CC(C)C3=O)CC[C@H](OC)[C@]34C1[C@](O)([C@@H](OC)[C@H]23)[C@@]1(O)C[C@H](OC)[C@H]2C[C@@H]4[C@@H]1C2=O (stereo partly drawn) [BARBININE]
- LD50: 57 mg/kg

SMILES: CCN1C[C@]2(C)CC[C@H](OC)[C@@]34C1[C@]1(OCO[C@@]15C[C@H](OC)[C@H]1C[C@]3(O)[C@@H]5[C@H]1OC)[C@@H](OC(C)=O)[C@H]24 [DELTALINE]
- LD50: 200 mg/kg

SMILES: CCN1C[C@]2(C)CC[C@H](OC)[C@@]34C1[C@]1(OCO[C@@]15C[C@H](OC)[C@H]1C[C@]3(O)[C@@H]5[C@H]1O)[C@@H](OC(C)=O)[C@H]24 [DICTYOCARPINE]
- LD50: 283 mg/kg

SMILES: CCN1C[C@]2(COC(=O)c3ccccc3N3C(=O)C[C@H](C)C3=O)CC[C@H](OC)[C@@]34C1[C@@]1(OCO[C@@]15C[C@H](OC)[C@H]1C[C@@H]3[C@@H]5[C@H]1OC)[C@@H](OC)[C@H]24 [ELATINE]
- LD50: 9.2 mg/kg

SMILES: CCN1C[C@]2(CO)CC[C@H](OC)[C@@]34[C@@H]5C[C@H]6[C@H](OC)[C@@H]5[C@](O)(C[C@@H]6OC)[C@](O)([C@@H](OC)[C@H]23)[C@@H]14 [LYCOCTONINE]
- LD50: 444 mg/kg

SMILES: CCN1C[C@]2(COC(=O)c3ccccc3N3C(=O)C[C@H](C)C3=O)CC[C@H](OC)[C@@]34[C@@H]5C[C@H]6[C@H](OC)[C@@H]5[C@](O)(C[C@@H]6OC)[C@](O)([C@@H](OC)[C@H]23)[C@@H]14 [METHYLLYCACONITINE]
- LD50: 7.5 mg/kg

SMILES: CCN1C[C@]2(COC(=O)c3ccccc3N3C(=O)C[C@H](C)C3=O)CC[C@H](OC)[C@]34C5C[C@@H]6[C@@H](OC)C[C@@](O)(C5[C@H]6OC(C)=O)[C@](O)(C13)[C@@H](OC)C24 (stereo partly drawn) [NUDICAULINE]
- LD50: 2.7 mg/kg

SMILES: CO[C@H]1[C@@H]2C[C@@H]3[C@H]1[C@](O)(C[C@@H]2OC)[C@]1(O)C2NC(=O)[C@]4(COC(=O)c5ccccc5N5C(=O)CC(C)C5=O)CC[C@H](OC)[C@@]23[C@@H]4[C@@H]1OC (stereo partly drawn) [ZALILINE]
- LD50: > 230 mg/kg
